In patent US9802962B2, “Tricyclic pyrone compounds reduce amyloid beta aggregates” (priority 2013, dated 2017):
“Also recorded” adds a separate entry of the source.

What was measured:
wildtype mice (C57BL/6) = experiment: Rotarod performance in wildtype mice; format: in vivo; settings: 50 mg/kg ip, one hour after dosing, Day 5
Method: FIG. 9. Effects of TP70 on mouse rotarod performance. The mice were trained three times every day for 4 days to reach its maximal performance using SmartCage Rotarod device (with a setting of a constant speed at 15 […] per minute).
To further assess side effects on motor activity, and particularly balance and muscle coordination, rotarod performance was conducted by the wildtype mice (C57BL/6 female, 2 months old, n=7). Vehicle injection (i.p) was given after the Day 4 training to assess any effects of vehicle or injection per se. On Day 5, one hour after TP70 (50 mg/kg, ip) the mice were subject to the rotarod test.

rat hippocampal slices = experiment: Long-term potentiation (LTP) in rat hippocampal slices; format: cell-based
Method: FIGS. 2A-2B. Effects of TP70 on rat hippocampal LTP. FIG. 2A. Top panels show superimposed field excitatory post-synaptic potentials (EPSPs) taken from baseline and 45 min following high frequency stimulation (HFS, four 1-s trains of 100 pulses of 0.2 ms delivered at 100 Hz, inter-train interval of 20 s) of the Schaffer collateral-CA1 synapses. FIG. 2B. […] In Control HFS induced LTP. AβO blocked LTP. TP70 (1 μM) restored LTP in the presence of AβO. TP70 alone enhanced LTP.
We further investigated effects of TP70 on basal neurotransmission and synaptic plasticity, for example long-term potentiation (LTP) in rat hippocampal slices as previously described (Villeda, et al., Nature, 2011, 477:90-94; Xie, et al., Pflugers Arch, 1994, 427:481-486).

Cc1cc2c(c(=O)o1)C=C1CCC(C(C)CNCc3ccc(O)cc3)CC1O2 (centres unmarked) [TP70]
rotarod performance (wildtype mice (C57BL/6)): insignificant effects
concentration required for enhancing synaptic activity and LTP restoration (rat hippocampal slices): 0.1 to 3 µM
LTP in the presence of AβO (rat hippocampal slices; 1 μM, perfused 20 min prior to co-application of AβO): restored LTP; also recorded: restored LTP to the non-AβO-treated level
basal synaptic activity (rat hippocampal slices; compound alone): without affecting basal synaptic activity
magnitude of LTP, compound alone (rat hippocampal slices; without AβO): significantly enhanced the magnitude of LTP
